Laboratory results as given in PubChem BioAssay AID1996.
≈ marks a conversion by molar mass, not a printed value.

Conditions: buffer; pH 7.4; 200.0 µM

Compound | solubility kinetic [µg/mL]
CSc1ccccc1NC(=O)c1cc(Cl)sc1Cl | 1.4 (≈ 4.4 µM)
S=C(c1ccccc1)N1CCCC1 | > 28.7
CNC(=O)NC(O)C(Cl)(Cl)Cl (stereo not given) | 33.1 (≈ 149 µM)
CCOc1ccccc1N1CCN(C(=O)c2cccs2)CC1 | 45.7 (≈ 144 µM)
O=C(CNCc1ccc(Cl)cc1)N1CCc2ccccc2C1 | 36.8 (≈ 117 µM)
O=c1cc(-c2ccccc2)nc(Cc2c(Cl)cccc2Cl)[nH]1 | < 0.4
COC(=O)c1sccc1NC(=O)COc1ccc(F)cc1Cl | < 0.7
CC(NC(=O)c1cc2cc(F)ccc2[nH]1)c1ccccc1 (stereo not given) | 4.2 (≈ 14.9 µM)
CC(C)=CC(=O)Nc1ccc(S(=O)(=O)Nc2onc(C)c2C)cc1 | > 52.4
O=C(Cn1cc(C(F)(F)F)ccc1=O)N/N=C/c1ccccc1 | > 48.5
O=C1c2cccc3cccc(c23)C(=O)N1c1ccccc1Cl | 0.8 (≈ 2.6 µM)
Cc1ccc(CNC(=O)COC(=O)COc2ccc(C#N)cc2)cc1 | > 50.8
Cc1c(C(=O)N(C)C(C)c2ccncn2)oc2c(F)cccc12 (stereo not given) | > 47
O=S(=O)(c1ccccc1)N1CCN(c2cccc(Cl)c2)CC1 | 3.8 (≈ 11.3 µM)
O=C(NCc1ccncc1)C(=O)Nc1ccc2c(c1)OCO2 | 9.5 (≈ 31.7 µM)
CC(C)c1cccc(C(C)C)c1NC(=O)CN1CCCC1 | > 43.3
COc1cccc(C(=O)NNC(=O)CCC(=O)O)c1 | > 39.9
CS(=O)(=O)N(CC(=O)O)c1ccc(C23CC4CC(CC(C4)C2)C3)cc1 | 49.5 (≈ 136 µM)
COCCN(CC(=O)Nc1cccc(C)c1C)C(=O)C1(c2ccccc2)CC1 | > 57.1
O=Cc1ccccc1OCCN1CCCC1=O | 33.8 (≈ 145 µM)
CC(=O)NC(CSc1cc(C)nc2ccc(Br)cc12)C(=O)O (stereo not given) | 57.2 (≈ 149 µM)
Cc1ccc(NC(=O)CN(C)Cc2ccc(Cl)cc2)cc1 | 20.6 (≈ 68 µM)
Cc1cc(SCC(=O)Nc2ccc3[nH]c(=O)[nH]c3c2)nc2ccccc12 | 2.9 (≈ 7.96 µM)
COc1ccc2cc[nH]c2c1 | 15.3 (≈ 104 µM)

Compound | solubility kinetic [µg/mL]
Cc1cc(C)c(C(=O)Nn2c(C)nc3ccccc3c2=O)cc1C | > 48.2
Cn1c(O)c(C=Nc2ccc(Br)cc2)sc1=O | < 0.3
Cc1ccc(NC(=O)O/N=C/c2ccc(N(C)C)cc2)cc1 | 1.1 (≈ 3.7 µM)
COc1ccc2c(c1)C(C)CC(C)(C)N2C(=O)Nc1ccccc1 (stereo not given) | 13.4 (≈ 41.3 µM)
NS(=O)(=O)c1ccc(NC(=O)/C=C/c2ccco2)cc1 | 36.3 (≈ 124 µM)
Cc1onc(-c2c(F)cccc2Cl)c1C(=O)OCC(=O)N1C(C)CCCC1C (stereo not given) | 41.7 (≈ 102 µM)
Cc1cc(C)c(NC(=O)C2CCN(C(=O)c3ccco3)CC2)c(C)c1 | 44.2 (≈ 130 µM)
CCc1c(O)nc(SCC(=O)N(CC)CC)[nH]c1=O | > 42.8
O=C(NCCNC(=O)c1ccco1)c1ccc(Cl)c(Cl)c1 | 44.7 (≈ 137 µM)
Cc1nnc(N2C(=O)c3ccc(Br)cc3C2=O)s1 | > 48.6
C[n+]1ccccc1/C=N/O.[I-] | > 39.6
COc1ccccc1CNC(=O)Cn1c(=O)oc2cc(Cl)ccc21 | 1.7 (≈ 4.9 µM)
COc1cccc(N=Cc2c(O)c3ccccc3oc2=O)c1 | 15.5 (≈ 52.5 µM)
O=C(O)c1ccccc1C(=O)N1CCN(S(=O)(=O)c2cccc(C(F)(F)F)c2)CC1 | > 66.4
COc1ccc(C(=O)NCC(C)NC(=O)c2ccc(OC)c(OC)c2)cc1OC (stereo not given) | 8.9 (≈ 22.1 µM)
O=C1NC(C(F)(F)F)(C(F)(F)F)N=C2SC=CN12 | 41.6 (≈ 143 µM)
COc1cccc(NC(=O)CC2Oc3ccccc3NC2=O)c1 (stereo not given) | 6.7 (≈ 21.5 µM)
Cc1cccc(C(=O)OCC(=O)N2CCCCCC2)c1C | > 43.4
Cc1ccc(N2CN(CCc3ccccc3)CNC2=S)cc1 | 6.5 (≈ 20.9 µM)
Cc1ccc2nc(C)cc(C(=O)Nc3nccs3)c2c1 | 19.3 (≈ 68.1 µM)
O=C1Nc2ccccc2C1=Nc1ccc(Br)cc1 | 6.7 (≈ 22.2 µM)
O=C(CC1SCCNC1=O)Nc1ccccc1Cl (stereo not given) | 38.6 (≈ 136 µM)
Cn1c(=O)oc2cc(S(=O)(=O)Nc3ccc(Cl)cc3)ccc21 | 4.1 (≈ 12.1 µM)
CCOc1cccc(C(=O)NC(=S)Nc2ccc(Cl)cc2C(=O)O)c1 | 55.2 (≈ 146 µM)

Compound | solubility kinetic [µg/mL]
Cc1ccc2sc(NC(=O)C3CC3)nc2c1C | 1.3 (≈ 5.28 µM)
Nc1cc(=O)[nH]c(SCC(=O)Nc2ccc3c(c2)CCC3)n1 | 7.8 (≈ 24.7 µM)
O=C(O)c1cccnc1 | > 18.5
CN(C)C(CNC(=O)CSC(=S)N1CCCC1)c1ccccc1 (stereo not given) | > 52.7
CCc1cc2c(SCC(=O)NC3CC3)ncnc2s1 | > 44
COC(=O)CCC(=O)Nc1nccs1 | > 32.1
C[C@H](NC(=O)c1ccc2c(c1)OCO2)c1nnc2ccccn12 | > 46.5
CC1=Nc2cc(C(=O)O)ccc2Sc2c(C)ccc(C)c21 | 42.1 (≈ 142 µM)
CC(C)NC(=O)c1ccccc1NC(=O)C1CC(=O)N(C(C)C)C1 (stereo not given) | > 49.7
NS(=O)(=O)c1ccc(NC(=O)Nc2ccccc2)cc1 | 42.8 (≈ 147 µM)
Cc1ccc(C(=O)Nc2ccccc2N2CCCCC2)o1 | 2.8 (≈ 9.85 µM)
Cc1nc(SCC(=O)Nc2cccc(S(=O)(=O)N3CCOCC3)c2)nc(C)c1C | 29.5 (≈ 67.6 µM)
Cc1cccc(C)c1NC(=O)CNC(=O)c1ccncc1 | > 42.5
Cn1c(=S)[nH]c2c(c1=O)C(C)(C)Cc1ccccc1-2 | 3 (≈ 11 µM)
Cc1ccc(NC(=S)NC(C)(C)C)c([N+](=O)[O-])c1 | 8.2 (≈ 30.7 µM)
N#Cc1c(Nc2ccccc2C(F)(F)F)s[nH]c1=O | > 42.8
Cc1cc([N+](=O)[O-])cc2c1NC(=O)C2(O)N1CCCC(C)C1 (stereo not given) | 28.3 (≈ 92.7 µM)
COc1ccccc1NC(=O)CCN1C(=O)c2ccccc2C1=O | > 48.7
COc1ccc(OCCSc2nc(C)nc3ccccc23)cc1 | 0.6 (≈ 1.84 µM)
Brc1cccc(C=Nc2cccc3ncccc23)c1 | 12.2 (≈ 39.2 µM)
O=C(COc1ccc2ccccc2c1)NCC1CCCO1 (stereo not given) | 36.9 (≈ 129 µM)
Cc1ccc(C(=O)N(C)CC(=O)Nc2ccc(F)c(F)c2F)o1 | > 48.9
Cc1nc(Cc2nnc(SCC(=O)N3CC(=O)Nc4ccccc43)o2)cs1 | > 60.2
CCN(C(=O)COc1nc(C)cc(C)c1C#N)c1ccccc1 | 9.3 (≈ 30.1 µM)

Compound | solubility kinetic [µg/mL]
Cc1ccc2nc(N3CCN(C)CC3)c(C=O)c(=O)n2c1 | 41.3 (≈ 144 µM)
CCOC(=O)C1=C(C)NC(C)=C(C(=O)OCC)C1C(=O)OCC(=O)N1CCC(C)CC1 | 15.9 (≈ 36.4 µM)
O=C1NCCCCC1NS(=O)(=O)c1ccccc1 (stereo not given) | > 40.2
CCCOc1ccc(NC(=O)CCC(=O)NC(C)c2ccccc2)cc1 (stereo not given) | 0.5 (≈ 1.41 µM)
Cn1ccsc1=NC(=O)c1ccc(S(C)(=O)=O)cc1 | > 44.5
Cc1ccc(Nc2cc(C)c3ccc(O)cc3n2)cc1C.Cl | 11.1
C=CCOc1ccc(CNCC2CCCO2)cc1.Cl (stereo not given) | > 42.6
Cc1cccc(COc2ccc(/C=C3/C(=O)N(C)C(=S)N3C)cc2)c1 | 5.4 (≈ 15.3 µM)
CCOc1ccc2[nH]c3c(=O)n(CCC4=CCCCC4)cnc3c2c1 | 10.7 (≈ 31.7 µM)
CC(=O)c1c(O)c2ccccc2n(Cc2ccccc2)c1=O | 11.8 (≈ 40.2 µM)
O=S(=O)(Nc1ccccn1)c1ccc(Cl)c2ccccc12 | 1.4 (≈ 4.39 µM)
Cc1cc(NC(=O)NC(C)(C(F)(F)F)C(F)(F)F)no1 | > 45.8
O=C(NCCCNC(=O)c1ccco1)c1ccc(F)cc1 | 42.7 (≈ 147 µM)
CN(CC(=O)NCc1ccccc1Cl)CC(=O)Nc1cccc(F)c1 | > 54.6
COc1ccc(OC)c(NC(=O)NCCc2cccc(Cl)c2)c1 | 1.9 (≈ 5.67 µM)
O=C(Nc1ccccc1Cl)c1ccc2nccnc2c1 | > 42.6
N#Cc1ccc(OCc2noc(-c3ccsc3)n2)cc1 | 0.3 (≈ 1.06 µM)
C=CCn1c(/N=C/c2ccc(OC)cc2)nc2ccccc21 | 40.6 (≈ 139 µM)
Fc1cccc(CN2CCSCC2)c1 | 6.3 (≈ 29.8 µM)
CC(=O)Nc1cccc(NC(=O)/C=C/c2ccc(S(=O)(=O)N3CCOCC3)cc2)c1 | 18.8 (≈ 43.8 µM)
COc1ccccc1C(=O)COC(=O)CN1C(=O)c2ccccc2C1=O | 6.4 (≈ 18.1 µM)
COc1ccc(N2CCN(CC(=O)NCc3ccc(Cl)cc3)CC2)cc1 | 2.2 (≈ 5.88 µM)
O=C(Nc1sc2c(c1C(=O)O)CCCC2)c1ccccc1Cl | > 50.4
Cc1cccc(NC(=O)C(C)Oc2ccc(C)nc2[N+](=O)[O-])c1 (stereo not given) | > 47.3

Compound | solubility kinetic [µg/mL]
Cc1sc2c(c1C)C(=O)/C(=C\Nc1ccncc1)S(=O)(=O)N2C | 1.9 (≈ 5.44 µM)
CC(=O)Nc1ccc(CN2CCCN(C)CC2)cc1 | 29.2 (≈ 112 µM)
CC(C)N(C(=S)Nc1cccc(C(F)(F)F)c1)C(C)c1ccccn1 (stereo not given) | 6.7 (≈ 18.2 µM)
COc1ccc(C(=O)N=c2sc3ccccc3n2C)cc1OC | < 0.4
CC1CC(C)CN(C(=O)COC(=O)c2ccc([N+](=O)[O-])o2)C1 (stereo not given) | > 46.5
C/C(N)=C(/C#N)C(=O)COC(=O)c1ccccc1Cc1ccccc1 | 22.3 (≈ 66.7 µM)
Cc1ccc(S(=O)(=O)NC23CC4CC(CC(C4)C2)C3)cc1 | 2.4 (≈ 7.86 µM)
Cc1cc(=O)n(Cc2ccccc2)c(O)c1C#N | 32.2 (≈ 134 µM)
Cc1c(C(=O)NCc2ccco2)oc2ccccc12 | 6.3 (≈ 24.7 µM)
COc1cccc(-c2cc(C(=O)N3CCOCC3)no2)c1 | > 43.2
COc1ccc(C)cc1Nc1nc(C)nc2sc(C)cc12 | 2.3 (≈ 7.68 µM)
Cc1ccc(CONC(=O)c2ccccc2)cc1 | > 36.2
O=C(Nc1ccc(NC(=O)c2cccs2)cc1)c1cccnc1 | 0.4 (≈ 1.24 µM)
COc1ccc(NS(=O)(=O)c2cn(C)cn2)cc1OC | 32.9 (≈ 111 µM)
Cl.O=C(O)CC1NCCc2ccccc21 (stereo not given) | > 34.2
Cl.c1ccc2c(c1)CC(N1CCCCC1)c1ccccc1S2 (stereo not given) | 1.8
COC(=O)c1[nH]c2ccccc2c1NC(=O)c1ccccc1F | 2.1 (≈ 6.72 µM)
CC(C)c1ccc(C(C)NC(=O)C2CCCC2)cc1 (stereo not given) | 2.6 (≈ 10 µM)
COC(=O)c1cccc(NC(=O)Nc2ccc(Cl)cc2)c1 | < 0.3
COc1ccc(NC(=O)CCC(=O)c2ccc(C(C)C)cc2)cc1 | < 0.7
CC(C)(C)C(=O)O/N=C(\N)c1ccc(Oc2cc(Cl)cc(Cl)c2)c([N+](=O)[O-])c1 | < 0.3
O=C(Nc1ccsc1C(=O)O)c1cccc(C(F)(F)F)c1 | > 47.3
O=C(CNS(=O)(=O)c1ccc(Cl)c(C(F)(F)F)c1)NC1CCCCC1 | 12.6 (≈ 31.6 µM)
CC(C)Cc1csc(NC(=O)C(C)C)c1C(=O)O | > 40.4
